Data: patent US5015661A, “Chromanes and their pharmaceutical compositions and methods” (Hoffmann-La Roche Inc., priority 1989, dated 1991)
Counter-ions that a name gives are not always drawn.

The compounds below were run against superoxide-dependent, iron-promoted lipid peroxidation of native rat heart cardiac lipid liposomes (assay: Lipid peroxidation inhibition (in vitro testing of antiperoxidative agents, ANTI-OX), hypoxanthine-xanthine oxidase-Fe3+.ADP, rat cardiac liposomes, MDA equivalents). Settings: 60 min, 37° C., screened at 1.0 μM, IC50 determined if inhibition ≥ 50%, read-out: ANTI-OX IC-50.
Type: biochemical
Description: The test system employs hypoxanthine-xanthine oxidase (XO)-Fe^3+. ADP as the free radical generator and purified, native rat-heart membrane phosphoglyceride in Hepes-KCl buffer, pH 7.4, as the substrate. Inhibition of superoxide-dependent, iron-promoted lipid peroxidation in the linear reaction phase (after 1 hour of reaction) is measured as the net formation of thiobarbituric acid (TBA)-reactive material. In this system, the TBA-reactive material, isolated by HPLC, is exclusively (>95%) malondialdehyde (MDA), a fragmentation end-product arising from fatty acyl hydroperoxides and cyclic endoperoxides. […]
a) Isolation and purification of Rat Cardiac Lipid
Conscious male Sprague-Dawley rats (~275g) maintained on a normal rodent diet were decapitated. The hearts were rapidly removed and perfused via the aorta with ice-cold 10 mM Hepes buffer, pH 7.4. The aorta and atria were removed, and the ventricular tissue was blotted and weighed (wet weight). The hearts were minced on ice with scissors and finally homogenized (100 mg tissue/ml ice-cold buffer) for 15 seconds (3×5 seconds) with a Tekmar Tissumizer at "maximal" setting. The homogenate was filtered through 4-ply cheesecloth, and homogenate lipids were extracted and purified by a modified Bligh-Dyer procedure (M.D. Marshall and M. Kates, Biochem. Biophys. Acta 260, 558 (1972). The cardiac lipids were stored in CHCl3 under nitrogen at -20° C. […]
b) Preparation of Cardiac Liposomes
Liposomes were prepared from extracted and purified, native rat heart cardiac lipid and were used as substrate for free-radical attack. Cardiac lipid (in CHCl3) was placed in a glass flask and evaporated to dryness under nitrogen at room temperature; the flask was gently rotated during evaporation to yield a thin, dry lipid film. The lipid was taken up in 10 mM Hepes-0.145M KCl, pH 7.4, and was resuspended by indirect an aerobic sonification for 15 minutes at room temperature. The liposome suspension was used immediately. […]
c) preparation of Fe^3+ -ADP Chelate
A chelate was formed in Hepes-KCl buffer between Fe^3+ (1.0mM FeCl3, final concentration) and ADP (10mM, final concentration) at pH 7.4 with stirring at room temperature. Chelation was allowed to proceed for 90 minutes prior to use. The chelate was prepared fresh for each days experiments to ensure iron solubility, effective chelation, and valence state. […]
d) Thiobarbituric Acid Reaction or Determination of Malondialdehvde Equivalents Malondialdehyde (MDA) equivalents were measured as thiobarbituric acid (TBA)-reactive material by the following modification of published methods. The reaction mixture. prepared fresh daily, contained water: BHT ([…] BHT in absolute ethanol): TBA (1.5% TBA in 0.2M Tris, pH 7.0) in the volume ratio 1:1:5. To each 1.0 ml of peroxidation reaction assayed (see below), 0.35 ml reaction mixture was added. After thorough mixing, the tubes were incubated in an 80° C. shaking water bath for 30 minutes. After this time, the tubes were plunged into an ice water bath, and the reaction was immediately stopped with 0.5 ml ice-cold 91% TCA followed by 2.0 ml CHCl3 After centrifugation for 30 minutes at 2000 rpm in a Sorval HL-8 rotor (4° C.), the absorbance of the washed, pink upper phase was read at 532 nm. A standard curve (0.8-40.0 nmol MDA) was run with every assay. For each curve, MDA was freshly prepared by acidification of 1,1,3,3 -tetraethoxypropane with 75% TCA-2.3N HCl (0.15 ml acid mixture with 1.0 ml suitably diluted tetraethoxypropane). Computer-assisted regression analysis of the standard curve was used to quantify the molar amounts of MDA equivalents in the experimental samples. […]
e) Lipid peroxidation Reaction
Cardiac liposomes were subjected to superoxidedependent. iron-promoted peroxidation in glass vessels to avoid the well-known antioxidant effects of many common polymerizing agents used to fabricate plastic labware. […]
Work on `CCCc1cc(C#CC2(C)CCc3c(C)c(O)c(C)c(C)c3O2)ccc1O` (racemic) [Example 37, rac-3,4-Dihydro-2-[(4-hydroxy-3-propylphenyl)ethynyl]-2,5,7,8-tetramethyl-2H-1-benzopyran-6-ol] yielded an IC50 greater than 1000 nM.

What follows are compounds tested against T1, Δ^5 -lipoxygenase from rat basophilic leukemia (RBL-1) cells (Rattus norvegicus, UniProt P12527) (assay: In vitro test for Δ^5 -lipoxygenase inhibitors (5-LO), RBL-1 cell enzyme, 5-HETE radioimmunoassay). Settings: RBL-1 5-LO; 10 min preincubation; 8.25 μM arachidonic acid, 10 min at 37° C.; 5-HETE formation; read-out: 5-LO IC-50.
T1 construct: endogenous in cells; host or cells: RBL-1 rat basophilic leukemia cells (ATCC CRL 1378); 113,000×g supernatant (cytosolic fraction)
T1 sequence (P12527 1-673): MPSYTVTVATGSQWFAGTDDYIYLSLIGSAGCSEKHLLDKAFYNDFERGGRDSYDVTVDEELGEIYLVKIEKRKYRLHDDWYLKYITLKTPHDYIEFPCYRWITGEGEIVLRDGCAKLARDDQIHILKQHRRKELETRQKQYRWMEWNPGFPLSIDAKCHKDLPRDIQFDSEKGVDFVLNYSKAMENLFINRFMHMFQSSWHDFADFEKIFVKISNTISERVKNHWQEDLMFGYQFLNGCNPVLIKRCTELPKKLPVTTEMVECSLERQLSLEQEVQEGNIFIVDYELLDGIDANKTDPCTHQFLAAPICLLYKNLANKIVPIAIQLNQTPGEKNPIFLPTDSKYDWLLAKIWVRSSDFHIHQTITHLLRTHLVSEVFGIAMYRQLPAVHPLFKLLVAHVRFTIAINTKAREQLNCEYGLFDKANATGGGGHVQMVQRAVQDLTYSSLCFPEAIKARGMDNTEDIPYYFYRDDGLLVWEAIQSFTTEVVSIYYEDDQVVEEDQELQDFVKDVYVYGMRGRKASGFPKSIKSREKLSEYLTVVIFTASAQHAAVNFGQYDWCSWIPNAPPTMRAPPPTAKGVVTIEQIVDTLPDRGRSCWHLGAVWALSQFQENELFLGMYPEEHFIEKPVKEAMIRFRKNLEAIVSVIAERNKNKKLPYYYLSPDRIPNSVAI
Type: biochemical
Description: IN VITRO TEST FOR Δ^5 -LIPOXYGENASE INHIBITORS Compounds of formula I of the invention were tested for their effect on Δ^5 -lipoxygenase from rat basophilic leukemia (RBL-1) cells. Materials. RBL-1 cells (CRL 1378) were obtained from the American TYpe Culture Collection, Rockville, MD. DMEM and glutamine were purchased from Flow Labs, McLean, VA. FBS (Gibco, Grand Island, NY) was heat-inactivated for 1 hour at 56° C. Reagents for protein determinations were obtained from Biorad, Rockville Center, NY. Arachidonic acid (approx. 99%), ATP (disodium slat), BHT, dextran (clinical grade), tetrasodium EDTA, gelatin, gentamycin sulfate solution, reduced glutathione, 1 M HEPES buffer, indomethacin, NaCl, reduced NADpH, Trizma 7.2, and Trizma 8.5 were purchased from Sigma Chemical, St. Louis, MO. CaCl2 dihydrate, Norit A charcoal, and citric acid monohydrate were obtained from Fisher Scientific, Pittsburgh, PA. […] MA. A synthetic 5-HETE standard was supplied by Dr. M. Rosenberger, Dept. of Medicinal Chemistry, Hoffmann-La Roche, Nutley, NJ; [see Corey, E.J., and Hashimoto, S. (1981 ) Tet. Letters, 22, 299-302 for method of preparation]. Ecoscint liquid sointillation fluid was purchased from National Diagnostics, Sommerville, NJ. Isolation of 5-lipoxygenase. […] Approximately 7-9 days after thawing, RBL-1 cells growing in log phase were seeded at a density of 7500 viable cells/ml in a closed 89-liter spinner flask. The cells were stirred constantly for 3-4 days at 37° C. until they reached a density greater than 500,000/ml but less than 800,00/ml. RBL-1 cells were harvested by centrifugation at 4° C. at 1500×g for 10 minutes and were washed 3 times with ice cold 0.05 M tris-HCl, pH 7.2, tetrasodium EDTA (buffer 1). The cells were washed last in 0.05 M Tris-HCl containing 14 μM indomethacin, 1 mM glutathione, 1.5 mM NaCl, and 1 mM tetrasodium EDTA (buffer 2), resuspended at a density of 5×108'/ml (approximately 10 ml) and disrupted manually at 4° C. using a 40 ml Dounce (type A pestle) homogenizer. After 5 minutes of homogenization. 95% cell lysis was confirmed by phase contrast microscopy. The broken cells were diluted 1:2 with buffer 2 and centrifuged at 12,380×g for 10 minutes at 4° C. to pellet cellular debris and granules. The 12,380×g supernatant was centrifuged at 113,000×g for 60 minutes to pellet microsomes. The high-speed supernatant (5.9±0.48 mg/ml protein) was frozen immediately in 1 ml aliquots using a dry ice/acetone bath. The isolated cytosolic fraction was stored in liquid N2 for up to 8 weeks without loss of 5-LO enzyme activity. Lipoxygenase Assay. Compounds Were dissolved at 25 mM concentration in DMSO, then diluted to final concentrations using 95% ethanol. For a typical enzyme assay, the partially purified 5-LO preparation was preincubated with drug or vehicle for 10 minutes at 30° C. The assay tubes were then transferred at a 37° C. water bath where they received arachidonic acid (8.25 μM final concentration) to initiate 5-LO activity. In addition to enzyme and substrate, each reaction tube contained: 12.5 μmoles of Tris-HCl (pH 7.2), 25 nmoles glutathione, 0.35 nmoles indomethacin and 1.25 μmoles of CaCl2 and ATP to yield a total of volume of 250 μl. The enzyme reaction was terminated after 10 minutes by the addition of 75μl […] citric acid to yield pH 3.5. The samples were immediately cooled on ice and neutralized by dilution with 0.05 M Tris-HCl, pH 8.5, which contained 25 mg/1 BHT. A boiled cytosol control was placed at the end of each assay to measure non-enzymatic oxidation of arachidonic acid. The mean specific activity of the 5-LO enzyme preparation was approximately 66.16±14.39 pmol 5-HETE/min/mg protein. Radioimmunoassay for 5-HETE. Under the assay conditions described, the 5-LO catalyzed the conversion of arachidonic acid to 5-HPETE which, as a consequence o peroxidase activity, was reduced to 5-HETE. A specific radioimmunoassay was employed to quantitate the amount (pmoles) of 5-HETE formed during the enzyme reaction. […]
For `Cc1c(C)c2c(c(C)c1O)CCC(C)(C#Cc1ccccc1NC(=O)C(F)(F)F)O2` (racemic) [Example 44, rac-2,2,2-Trifluoro-N-{2-[(3,4-dihydro-6-hydroxy-2,5,7,8-tetramethyl-2H-1-benzopyran-2-yl)ethynyl]phenyl}acetamide], the IC50 was 10 nM. `Cc1c(C)c2c(c(C)c1O)CCC(C)(C#Cc1ccc3c(c1)N(C(=O)C(F)(F)F)CCO3)O2` (racemic) [Example 45, rac-3,4-Dihydro-6-[(3,4-dihydro-6-hydroxy-2,5,7,8-tetramethyl2H-1-benzopyran-2-yl)ethynyl]-4(trifluoroacetyl)-2H-1,4-benzoxazine] showed an IC50 of 45 nM. `Cc1c(C)c2c(c(C)c1O)CCC(C)(C#Cc1ccc3c(c1)NCCO3)O2` (racemic) [Example 47, rac-2-[(3,4-dihydro-2H-1,4-benzoxazine-6-yl)ethynyl]-3,4-dihydro-2,5,7,8-tetramethyl-2H-1-benzopyran-6-ol hydrochloride] showed an IC50 of 18 nM. For `CC(=O)Oc1cc(CCC2(C)CCc3c(C)c(O)c(C)c(C)c3O2)ccc1O` (racemic) [Example 67, rac-4-[2-(3,4-Dihydro-6-hydroxy-2,5,7,8-tetramethyl-2H-1-benzopyran-2-yl)ethyl]-1,2-benzenediol-2-acetate], the IC50 was 38 nM. `COc1cc(CN)cc(CCC2(C)CCc3c(C)c(O)c(C)c(C)c3O2)c1O` (racemic) [Example 68, rac-{2-[5-(Aminomethyl)-2-hydroxy-3-methoxyphenyl]ethyl}-3,4-dihydro-2,5,7,8-tetramethyl-2H-1-benzopyran-6-ol hydrochloride] was tested, and the IC50 was 70 nM.
